Test results: paper PMC12155096 (International Journal of Molecular Sciences, 2025); call rule not given here
Structures can show the parent of a compound that is named as a salt. Where two headings read alike, the source gives them in different places.

Tests used:
Experiment in all cases: biochemical
[1] = molecular target: Photinus pyralis (firefly) luciferase (Photinus pyralis, UniProt P08659); type: biochemical
[2] = molecular target: human CYP2C9 (Homo sapiens, UniProt P11712)
[3] = molecular target: CYP3A4 (Homo sapiens, UniProt P08684)
[4] = molecular target: human CYP2C19 (Homo sapiens, UniProt P33261)
[5] = molecular target: T1, human CYP1A2 (Homo sapiens, UniProt P05177)
T1 sequence (P05177 1-516): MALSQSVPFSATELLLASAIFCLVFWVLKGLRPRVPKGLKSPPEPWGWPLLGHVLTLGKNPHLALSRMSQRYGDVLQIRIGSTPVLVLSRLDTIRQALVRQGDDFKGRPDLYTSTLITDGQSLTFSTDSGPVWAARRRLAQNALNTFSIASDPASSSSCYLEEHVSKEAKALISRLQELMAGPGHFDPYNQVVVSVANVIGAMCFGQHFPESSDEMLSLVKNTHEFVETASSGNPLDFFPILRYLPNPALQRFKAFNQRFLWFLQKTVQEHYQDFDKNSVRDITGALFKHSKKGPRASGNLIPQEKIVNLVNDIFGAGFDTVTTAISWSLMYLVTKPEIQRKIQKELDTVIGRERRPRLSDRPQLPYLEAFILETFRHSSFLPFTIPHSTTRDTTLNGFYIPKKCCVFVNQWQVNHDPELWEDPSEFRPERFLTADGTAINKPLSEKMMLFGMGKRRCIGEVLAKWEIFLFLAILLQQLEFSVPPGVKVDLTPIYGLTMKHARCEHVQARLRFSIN

[6] = molecular target: human CYP2D6 (Homo sapiens, UniProt P10635)
[7] = CYP2C9 IC50 (half-maximal inhibitory concentration)
[8] = CYP3A4 IC50 (half-maximal inhibitory concentration)
[9] = CYP2C19 IC50 (half-maximal inhibitory concentration)
[10] = CYP1A2 IC50 (half-maximal inhibitory concentration)
[11] = CYP2D6 IC50 (half-maximal inhibitory concentration)

Chain of human CYP2D6 (P10635 whole entry): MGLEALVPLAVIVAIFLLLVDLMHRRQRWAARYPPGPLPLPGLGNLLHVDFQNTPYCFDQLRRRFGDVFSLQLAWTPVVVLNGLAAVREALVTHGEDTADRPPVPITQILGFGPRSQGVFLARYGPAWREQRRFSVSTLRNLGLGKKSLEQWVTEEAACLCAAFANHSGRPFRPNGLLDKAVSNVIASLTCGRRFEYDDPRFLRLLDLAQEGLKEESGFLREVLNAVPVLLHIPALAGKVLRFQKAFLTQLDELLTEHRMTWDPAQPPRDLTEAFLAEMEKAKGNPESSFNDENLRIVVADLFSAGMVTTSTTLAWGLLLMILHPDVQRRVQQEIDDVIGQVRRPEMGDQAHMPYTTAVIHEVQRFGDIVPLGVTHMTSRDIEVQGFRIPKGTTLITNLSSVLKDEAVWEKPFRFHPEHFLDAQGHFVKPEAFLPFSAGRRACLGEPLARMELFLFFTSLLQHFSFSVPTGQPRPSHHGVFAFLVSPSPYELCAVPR
Chain of human CYP2C19 (P33261 whole entry): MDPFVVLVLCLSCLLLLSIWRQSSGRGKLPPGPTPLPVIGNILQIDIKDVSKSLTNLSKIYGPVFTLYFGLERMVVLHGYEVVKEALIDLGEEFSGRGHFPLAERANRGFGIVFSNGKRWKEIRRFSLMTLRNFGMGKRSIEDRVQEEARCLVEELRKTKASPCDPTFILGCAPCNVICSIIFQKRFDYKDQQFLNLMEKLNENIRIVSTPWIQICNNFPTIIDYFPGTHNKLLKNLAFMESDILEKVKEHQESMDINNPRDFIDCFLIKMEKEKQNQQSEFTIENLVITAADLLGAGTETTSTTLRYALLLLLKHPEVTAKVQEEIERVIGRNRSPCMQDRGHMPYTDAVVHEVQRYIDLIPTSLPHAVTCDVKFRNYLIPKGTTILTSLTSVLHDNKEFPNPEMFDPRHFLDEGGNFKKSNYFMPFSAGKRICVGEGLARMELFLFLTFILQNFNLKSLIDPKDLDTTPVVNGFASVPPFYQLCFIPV
Chain of CYP3A4 (P08684 whole entry): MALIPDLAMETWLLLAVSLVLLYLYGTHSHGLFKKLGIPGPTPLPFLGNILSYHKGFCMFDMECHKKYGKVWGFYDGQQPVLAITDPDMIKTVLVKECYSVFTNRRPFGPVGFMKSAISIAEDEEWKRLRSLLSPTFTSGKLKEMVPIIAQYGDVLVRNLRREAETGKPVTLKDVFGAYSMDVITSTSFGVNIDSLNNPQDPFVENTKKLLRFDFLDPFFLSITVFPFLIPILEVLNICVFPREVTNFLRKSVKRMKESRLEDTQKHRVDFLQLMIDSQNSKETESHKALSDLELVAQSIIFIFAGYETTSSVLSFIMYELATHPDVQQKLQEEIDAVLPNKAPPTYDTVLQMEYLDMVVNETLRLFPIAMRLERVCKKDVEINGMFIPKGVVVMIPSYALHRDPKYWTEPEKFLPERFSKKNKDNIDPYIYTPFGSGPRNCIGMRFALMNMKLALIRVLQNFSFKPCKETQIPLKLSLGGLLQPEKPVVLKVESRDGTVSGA
Chain of human CYP2C9 (P11712 whole entry): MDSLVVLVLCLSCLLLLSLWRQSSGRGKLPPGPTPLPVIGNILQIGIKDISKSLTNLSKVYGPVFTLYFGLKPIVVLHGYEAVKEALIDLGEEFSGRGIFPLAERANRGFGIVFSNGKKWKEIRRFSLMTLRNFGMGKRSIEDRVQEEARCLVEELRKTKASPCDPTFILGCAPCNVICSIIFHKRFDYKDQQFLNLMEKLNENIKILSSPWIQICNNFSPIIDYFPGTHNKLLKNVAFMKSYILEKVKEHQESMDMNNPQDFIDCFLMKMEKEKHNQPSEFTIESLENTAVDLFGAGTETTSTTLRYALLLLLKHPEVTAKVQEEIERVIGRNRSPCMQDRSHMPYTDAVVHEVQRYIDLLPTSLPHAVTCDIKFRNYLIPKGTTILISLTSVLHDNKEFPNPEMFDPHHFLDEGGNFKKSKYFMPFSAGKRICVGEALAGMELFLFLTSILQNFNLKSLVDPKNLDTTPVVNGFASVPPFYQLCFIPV
Chain of Photinus pyralis (firefly) luciferase (P08659 whole entry): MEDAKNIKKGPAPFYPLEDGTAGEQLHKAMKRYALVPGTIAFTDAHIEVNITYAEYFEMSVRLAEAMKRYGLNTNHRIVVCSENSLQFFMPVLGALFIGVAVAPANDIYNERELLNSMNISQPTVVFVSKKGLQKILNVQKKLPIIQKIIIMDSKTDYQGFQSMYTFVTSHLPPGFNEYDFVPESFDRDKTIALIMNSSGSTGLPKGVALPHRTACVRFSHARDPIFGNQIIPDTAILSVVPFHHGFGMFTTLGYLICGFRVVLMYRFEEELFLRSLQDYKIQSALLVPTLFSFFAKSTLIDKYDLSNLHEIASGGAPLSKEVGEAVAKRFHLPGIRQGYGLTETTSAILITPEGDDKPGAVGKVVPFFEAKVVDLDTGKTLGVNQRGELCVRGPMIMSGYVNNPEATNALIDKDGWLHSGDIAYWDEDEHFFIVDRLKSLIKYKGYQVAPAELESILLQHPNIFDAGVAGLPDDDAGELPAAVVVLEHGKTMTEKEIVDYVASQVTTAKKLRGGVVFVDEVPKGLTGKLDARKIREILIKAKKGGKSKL

Compound	Luciferase IC50 (half-maximal inhibitory concentration) [1]	IC50 [2, 7] [µM]	IC50 [3, 8] [µM]	IC50 [4, 9] [µM]	IC50 [5, 10] [µM]	IC50 [6, 11] [µM]	IC50 [2] [µM]	IC50 [6] [µM]	also measured
CCOCn1c(-c2ccc(Cl)cc2)c(C#N)c(Br)c1C(F)(F)F [Chlorfenapyr]	Inactive	9.71	37	4.66	0.6	33	–	–	–
O=C1c2ccccc2C(=O)C1C(=O)C(c1ccccc1)c1ccc(Cl)cc1 (centres unmarked) [Chlorophacinone]	Inactive	0.76	33.6	11	8.52	44.9	–	–	AC50 ([2]; CYP2C9 AC50 (half-maximal activity concentration)): 0.76 µM; AC50 ([3]; CYP3A4 AC50 (half-maximal activity concentration)): 33.6 µM; AC50 ([4]; CYP2C19 AC50 (half-maximal activity concentration)): 11 µM; AC50 ([5]; CYP1A2 AC50 (half-maximal activity concentration)): 8.52 µM; AC50 ([6]; CYP2D6 AC50 (half-maximal activity concentration)): 44.9 µM
CCOP(=S)(OCC)SC(CCl)N1C(=O)c2ccccc2C1=O (centres unmarked) [Dialifor]	Inactive	–	1.65	0.38	68.4	–	1.13	38.5	–
CC1COC(Cn2cncn2)(c2ccc(Oc3ccc(Cl)cc3)cc2Cl)O1 (centres unmarked) [Difenoconazole]	Inactive	1.22	0.08	0.08	27.4	34.4	–	–	–
CC(C(O)c1ccccc1)N(C)CCOC(c1ccccc1)c1ccccc1 (centres unmarked) [Difeterol]	Inactive	–	–	–	–	–	16.8 ± 1.09	0.11 ± 0.06	IC50 [3]: 0.62 ± 0.07 µM; IC50 [4]: 7.12 ± 1.98 µM; IC50 [5]: 23.5 ± 5.69 µM
CCOP(=S)(OCC)SCCS(=O)(=O)CC [Disulfoton sulfone]	Inactive	–	2.61	0.3	26	–	1.64	13.4	–
CCCCCCCCCCCCN [Dodecylamine hydrochloride]	–	–	–	–	–	–	–	–	Luciferase IC50 [1]: Inactive; IC50 ([2]; CYP2C9 IC50): 6.64 µM; IC50 ([3]; CYP3A4 IC50): 34.3 µM; IC50 ([4]; CYP2C19 IC50): 0.47 µM; IC50 ([5]; CYP1A2 IC50): 2.55 µM; IC50 ([6]; CYP2D6 IC50): 3.3 µM
O=S1OCC2C(CO1)C1(Cl)C(Cl)=C(Cl)C2(Cl)C1(Cl)Cl (centres unmarked) [Endosulfan]	–	–	–	–	–	–	–	–	Luciferase IC50 [1]: Inactive; IC50 ([2]; CYP2C9 IC50): 37.2 µM; IC50 ([3]; CYP3A4 IC50): 0.39 µM; IC50 ([4]; CYP2C19 IC50): 3.19 µM; IC50 ([5]; CYP1A2 IC50): 35.8 µM; IC50 ([6]; CYP2D6 IC50): 18 µM
CCC(=O)O[C@H]1[C@H](O[C@@H]2[C@@H](C)[C@H](O[C@H]3C[C@@](C)(OC)[C@@H](O)[C@H](C)O3)[C@@H](C)C(=O)O[C@H](CC)[C@@](C)(O)[C@H](O)[C@@H](C)C(=O)[C@H](C)C[C@@]2(C)O)O[C@H](C)C[C@@H]1N(C)C [Erythromycin estolate]	–	–	–	–	–	–	32.7 ± 12.3	30.5 ± 9.76	IC50 [1]: 55 µM; IC50 [3]: 0.29 ± 0.04 µM; IC50 [4]: 47.1 µM; IC50 [5]: 33.5 ± 11 µM
CCOP(=S)(OCC)SCSP(=S)(OCC)OCC [Ethion]	–	–	–	–	–	–	0.52	37	Luciferase IC50 [1]: Inactive; IC50 ([3]; CYP3A4 IC50): 0.97 µM; IC50 ([4]; CYP2C19 IC50): 0.34 µM; IC50 ([5]; CYP1A2 IC50): 19.6 µM
CCOc1cc(C(C)(C)C)ccc1C1COC(c2c(F)cccc2F)=N1 (centres unmarked) [Etoxazole]	Inactive	9.94	0.11	3.43	19.6	10.5	–	–	–
OC(c1ccc(Cl)cc1)(c1cncnc1)c1ccccc1Cl (centres unmarked) [Fenarimol]	Inactive	6.1	0.17	0.24	71.4	35.6	–	–	–
N#CC(CCc1ccc(Cl)cc1)(Cn1cncn1)c1ccccc1 (centres unmarked) [Fenbuconazole]	Inactive	1.94	0.05	0.17	35.8	38.6	–	–	–
COP(=S)(OC)Oc1ccc([N+](=O)[O-])c(C)c1 [Fenitrothion]	–	6.12	8.48	0.55	1.04	35	–	–	IC50 [1]: 67 µM
O=[N+]([O-])c1cc(C(F)(F)F)c(Cl)c([N+](=O)[O-])c1Nc1ncc(C(F)(F)F)cc1Cl [Fluazinam]	–	0.73	18.7	14.8	35.6	46.2	–	–	IC50 [1]: 89.4 µM
C[Si](Cn1cncn1)(c1ccc(F)cc1)c1ccc(F)cc1 [Flusilazole]	Inactive	2.28	0.16	0.06	27.9	33	–	–	–
